# Test results from patent US8445636B2, “Antimicrobial and anticancer lipopeptides” (Yeda Research & Development Co. Ltd., priority 2003, dated 2013).
# Read-outs that look alike come from different tables or passages of the source. Non-standard residues stand in square brackets, D forms with d. Residues, ends and D or L forms follow the SMILES beside them. *: point of attachment. Palmitoyl = CCCCCCCCCCCCCCCC(=O)*; Decanoyl = CCCCCCCCCC(=O)*
# Tests used:
# Assay type in all cases: cell-based
# [1] = tested on: Aspergillus fumigatus ATCC 26430; assay: microbe, parasite or virus in culture
# [2] = Cytotoxicity, XTT viability, non-cancer cells; settings: mouse, non-cancer cell line, 24 h incubation, read-out: LC50, 3T3
# Method: Prostate cancer cell lines (CL1 and 22RV1; ATCC, USA) were grown in RPMI-1640 supplemented with 10% FCS (Biological Industries, Beit Haemek, Israel). N1H-3T3 mouse fibroblast cell line (ATCC, USA) was grown in DMEM supplemented with 10% bovine serum. To test cytotoxicity against the cancer cells, aliquots of medium containing 1×10^4 cells were distributed into a 96-well plate (Falcon). After one day, the media were replaced with 90 μl of fresh media and 10 μl of a solution containing different concentrations of the peptides. The plate was then incubated for 24 h before adding to each well 50 μl of XTT reaction solution (Biological Industries, Beit Haemek, Israel); viability was determined as previously described (Papo et al., (2003) J. Biol. Chem. 278:21018-23). The LC50 (concentration at which 50% of the cells die) for each peptide was obtained from the dose-dependent cell viability curves.
# [3] = tested on: Candida albicans ATCC 10231; assay: microbe, parasite or virus in culture; settings: for MIC: read-out: Minimal Inhibitory Concentration, Candida Albicans (ATCC 10231)
# In short: (§1)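 In this assay, each strain, prepared at 1×10^4 CFU/ml before mixing, met serial twofold peptide dilutions in RPMI 1640 buffered with 0.165 M MOPS. Unless noted, pH was 7.4; a pH 5.5 condition was also run. After 24-48 h incubation (35 °C, agitated), wells were scored at 620 nm for total inhibition.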
# E. coli ATCC 35218 = settings: ATCC 35218, pH 7.4
# In short: (§2)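 MIC = lowest concentration with 100% growth inhibition, judged from A600 after 18-20 h incubation at 37° C. Bacteria at 1×10^6 CFU/ml in LB (pH 7.4 unless pH 5.5 stated) combined with equal volume of serially 2-fold diluted lipopeptide.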
# [4] = tested on: Pseudomonas aeruginosa ATCC 27853
# In short: as §2
# E. aerogenes ATCC 35029 = settings: ATCC 35029, pH 7.4
# In short: as §2
# [5] = tested on: Staphylococcus aureus ATCC 6538P
# In short: as §2
# [6] = tested on: Cryptococcus neoformans ATCC MYA-422; assay: microbe, parasite or virus in culture
# [7] = tested on: Cryptococcus neoformans ATCC 66031; assay: microbe, parasite or virus in culture; settings: Table 10; pH 7.4
# In short: as §1
# [8] = tested on: human red blood cells (hRBC); assay: Hemolytic activity, release of hemoglobin at 540 nm
# Method: Fresh human red blood cells (hRBC) with EDTA were rinsed 3 times with PBS (35 mM phosphate buffer/0.15 M NaCl, pH 7.3) by centrifugation for 10 min at 800 g and resuspended in PBS. Peptides dissolved in PBS were then added to 50 μl of a solution of the stock hRBC in PBS to reach a final volume of 100 μl (final erythrocyte concentration, 4% v/v). The resulting suspension was incubated under agitation for 60 min at 37° C. The samples were then centrifuged at 800×g for 10 min. Release of hemoglobin was monitored by measuring the absorbance of the supernatant at 540 nm. Controls for zero hemolysis (blank) and 100% hemolysis consisted of hRBC suspended in PBS and Triton 1%, respectively.
# [9] = tested on: methicilin-resistant Staphylococcus aureus (MRSA) ATCC 700698; settings: Table 4; pH 7.4
# In short: as §2
# [10] = tested on: Enterobacter cloacae ATCC 49141; settings: Table 4; pH 7.4
# In short: as §2
# [11] = tested on: Enterococcus faecalis ATCC 29212; settings: Table 4; pH 7.4
# In short: as §2
# [12] = tested on: Escherichia coli ATCC 25922
# In short: as §2
# [13] = tested on: Acinetobacter baumannii ATCC 19606
# In short: as §2
# B. subtilis ATCC 6051 = tested on: B. subtilis ATCC 6051
# [14] = tested on: Aspergillus flavus ATCC 9643
# [15] = tested on: Aspergillus niger ATCC 9642
# Method: The antifungal activity of the lipopeptides was examined in sterile 96-well plates (Nunc F96 microtiter plates) in a final volume of 200 μL as follows: 100 µl of a suspension containing fungi at a concentration of 1×10^4 Colony-Forming Units (CFU)/ml in culture medium (RPMI 1640, 0.165 M MOPS with L-glutamine, without NaHCO3) at pH 7.4 or pH 5.5 (adjustment of the pH was done by diluted solutions of HCl and NaOH) were added to 100 μl of water containing the peptide in serial 2-fold dilutions in water. The fungi were incubated in the presence of the lipopeptides for 24-48 h at 35° C. in a Binder KB115 incubator under agitation. Growth inhibition was determined by measuring the absorbance at 620 nm with a Microplate autoreader E1309 (Bio-Tek Instruments). Antifungal activity is expressed as the minimal inhibitory concentration (MIC), the concentration at which 100% inhibition of fungi growth was observed after the incubation time mentioned above. The fungi used were: Aspergillus niger ATCC 9642, Candida albicans ATCC 10231 and Cryptococcus neoformans ATCC 66031. If not indicated otherwise, the fungi growth was detected at pH 7.4.
# [16] = Table 14, lipopeptides vs parent peptides, pH 7.4
# [17] = Table 8, lipopeptides vs parent peptides, pH 7.4
compound,measurement,setting,value
"CC(C)C[C@@H](N)C(=O)N[C@@H](CCCCN)C(=O)N[C@@H](CCCCN)C(=O)N[C@H](CC(C)C)C(=O)N[C@H](CC(C)C)C(=O)N[C@@H](CCCCN)C(=O)N[C@@H](CCCCN)C(=O)N[C@H](CC(C)C)C(=O)N[C@H](CC(C)C)C(=O)N[C@@H](CCCCN)C(=O)N[C@@H](CCCCN)C(=O)N[C@H](CC(C)C)C(N)=O [[D]-L6K6, LKKLLKKLLKKL, reference compound] (H-[dL]KK[dL][dL]KK[dL][dL]KK[dL]-NH2; N-terminus assumed)","Minimal Inhibitory Concentration, A. fumigatus ATCC 26430","[1]; ATCC 26430, pH 7.4",>50 µM
same,CC50 at 24 h,[2],> 100 µM
same,"Minimal Inhibitory Concentration, C. albicans ATCC 10231","[3]; ATCC 10231, pH 7.4",>50 µM
same,"Minimal Inhibitory Concentration, E. coli ATCC 35218",E. coli ATCC 35218,50 µM
same,"Minimal Inhibitory Concentration, P. aeruginosa ATCC 27853","[4]; ATCC 27853, pH 7.4",>50 µM
same,"Minimal Inhibitory Concentration, E. aerogenes ATCC 35029",E. aerogenes ATCC 35029,>50 µM
same,"Minimal Inhibitory Concentration, S. aureus ATCC 6538P","[5]; ATCC 6538, pH 7.4",>50 µM
same,"Minimal Inhibitory Concentration, C. neoformans ATCC MYA-422","[6]; ATCC MYA-422, pH 7.4",>50 µM
"CCCCCCCCCCCCCCCC(=O)N[C@@H](CCCCN)C(=O)N[C@@H](C)C(=O)N[C@H](C)C(=O)N[C@H](C)C(=O)N[C@@H](CCCCN)C(=O)N[C@@H](C)C(=O)N[C@@H](C)C(=O)N[C@H](C)C(=O)N[C@@H](CCCCN)C(=O)N[C@H](C)C(=O)N[C@@H](C)C(=O)N[C@@H](CCCCN)C(N)=O [lipopeptide 5, (CH3—(CH2)14—CO—)-Lys-Ala-D-Ala-D-Ala-Lys-Ala-Ala-D-Ala-Lys-D-Ala-Ala-Lys-NH2] (Palmitoyl-KA[dA][dA]KAA[dA]K[dA]AK-NH2)","Minimal Inhibitory Concentration, A. fumigatus ATCC 26430","[1]; Table 10, pH 7.4",100 µM
same,"Minimal Inhibitory Concentration, Aspergillus fumigatus (ATCC 26430)",[1]; [16],100 µM
same,"Minimal Inhibitory Concentration, C. neoformans ATCC 66031",[7],1.56 µM
same,"Minimal Inhibitory Concentration, C. albicans ATCC 10231","[3]; Table 10, pH 7.4",12.5 µM
same,MIC,[3]; [16],12.5 µM
same,hemolytic activity,"[8]; at concentrations lower than 12 μM, human red blood cells (FIGS. 1-5)",do not exhibit significant hemolytic activity
same,hemolytic activity,"[8]; at concentrations lower than 12.5 μM, human red blood cells, 1 h",not hemolytic
same,"Minimal Inhibitory Concentration, S. aureus (MRSA)",[9],12.5 µM
same,"Minimal Inhibitory Concentration, P. Aeruginosa","[4]; Table 4, pH 7.4",6.25 µM
same,"Minimal Inhibitory Concentration, P. aeruginosa ATCC 27853",[4]; [17],6.25 µM
same,"Minimal Inhibitory Concentration, E. cloacae",[10],25 µM
same,"Minimal Inhibitory Concentration, E. faecalis",[11],12.5 µM
same,"Minimal Inhibitory Concentration, E. coli","[12]; Table 4, pH 7.4",6.25 µM
same,"Minimal Inhibitory Concentration, E. coli (ATCC 25922)",[12]; [17],6.25 µM
same,"Minimal Inhibitory Concentration, A. Baumaannii","[13]; Table 4, pH 7.4",6.25 µM
same,"Minimal Inhibitory Concentration, A. baumannii ATCC 19606",[13]; [17],6.25 µM
same,"Minimal Inhibitory Concentration, S. aureus","[5]; Table 4, pH 7.4",12.5 µM
same,"Minimal Inhibitory Concentration, S. aureus ATCC 6538P",[5]; [17],12.5 µM
same,"Minimal Inhibitory Concentration, B. subtilis (ATCC 6051)",B. subtilis ATCC 6051; [17],3.125 µM
same,"Minimal Inhibitory Concentration, Cryptococcus neoformans (ATCC MYA-422)",[6]; [16],1.56 µM
same,"Minimal Inhibitory Concentration, Aspergillus flavus (ATCC 9643)",[14]; [16],80 µM
same,"Minimal Inhibitory Concentration, Aspergillus niger (ATCC 9642)",[15]; [16],10 µM
"CCCCCCCCCCCCCCCC(=O)N[C@@H](CCCCN)C(=O)N[C@H](C(=O)N[C@@H](C(=O)N[C@@H](C(=O)N[C@@H](CCCCN)C(=O)N[C@H](C(=O)N[C@H](C(=O)N[C@@H](C(=O)N[C@@H](CCCCN)C(=O)N[C@@H](C(=O)N[C@H](C(=O)N[C@@H](CCCCN)C(N)=O)C(C)C)C(C)C)C(C)C)C(C)C)C(C)C)C(C)C)C(C)C)C(C)C [lipopeptide 7, (CH3—(CH2)14—CO—)-Lys-Val-D-Val-D-Val-Lys-Val-Val-D-Val-Lys-D-Val-Val-Lys-NH2] (Palmitoyl-KV[dV][dV]KVV[dV]K[dV]VK-NH2)","Minimal Inhibitory Concentration, Aspergillus fumigatus (ATCC 26430)","[1]; ATCC 26430, pH 7.4",>100 µM
same,MIC,"[3]; ATCC 10231, pH 7.4",3.125 µM
same,"Minimal Inhibitory Concentration, P. aeruginosa ATCC 27853","[4]; ATCC 27853, pH 7.4",>100 µM
same,"Minimal Inhibitory Concentration, E. coli (ATCC 25922)","[12]; ATCC 25922, pH 7.4",>100 µM
same,"Minimal Inhibitory Concentration, A. baumannii ATCC 19606","[13]; ATCC 19606, pH 7.4",>100 µM
same,"Minimal Inhibitory Concentration, S. aureus ATCC 6538P","[5]; ATCC 6538, pH 7.4",>100 µM
same,"Minimal Inhibitory Concentration, B. subtilis (ATCC 6051)","B. subtilis ATCC 6051; ATCC 6051, pH 7.4",>100 µM
same,"Minimal Inhibitory Concentration, Cryptococcus neoformans (ATCC MYA-422)","[6]; ATCC MYA-422, pH 7.4",3.125 µM
same,"Minimal Inhibitory Concentration, Aspergillus flavus (ATCC 9643)","[14]; ATCC 9643, pH 7.4",>100 µM
same,"Minimal Inhibitory Concentration, Aspergillus niger (ATCC 9642)","[15]; ATCC 9642, pH 7.4",>100 µM
"CCCCCCCCCC(=O)N[C@H](CC(C)C)C(=O)N[C@@H](CCCCN)C(=O)N[C@@H](CCCCN)C(=O)N[C@H](CC(C)C)C(=O)N[C@H](CC(C)C)C(=O)N[C@@H](CCCCN)C(=O)N[C@@H](CCCCN)C(=O)N[C@H](CC(C)C)C(=O)N[C@H](CC(C)C)C(=O)N[C@@H](CCCCN)C(=O)N[C@@H](CCCCN)C(=O)N[C@H](CC(C)C)C(N)=O [lipopeptide 21, (CH3-(CH2)8-CO-)-D-Leu-Lys-Lys-D-Leu-D-Leu-Lys-Lys-D-Leu-D-Leu-Lys-Lys-D-Leu-NH2] (Decanoyl-[dL]KK[dL][dL]KK[dL][dL]KK[dL]-NH2)","Minimal Inhibitory Concentration, A. fumigatus ATCC 26430","[1]; ATCC 26430, pH 7.4",12.5 µM
same,"Minimal Inhibitory Concentration, C. albicans ATCC 10231","[3]; ATCC 10231, pH 7.4",25 µM
same,"Minimal Inhibitory Concentration, E. coli ATCC 35218",E. coli ATCC 35218,12.5 µM
same,"Minimal Inhibitory Concentration, P. aeruginosa ATCC 27853","[4]; ATCC 27853, pH 7.4",12.5 µM
same,"Minimal Inhibitory Concentration, E. aerogenes ATCC 35029",E. aerogenes ATCC 35029,50 µM
same,"Minimal Inhibitory Concentration, S. aureus ATCC 6538P","[5]; ATCC 6538, pH 7.4",6.25 µM
same,"Minimal Inhibitory Concentration, C. neoformans ATCC MYA-422","[6]; ATCC MYA-422, pH 7.4",1.56 µM
